# Source: patent US5508310A, “Immunopotentiatory agents and physiologically acceptable salts thereof” (Burroughs Wellcome Co., priority 1992, dated 1996)
# Several values for one entry are separate records, joined by “and”; a condition that tells them apart may be missing. Equal entries are not always repeated.
# How the values were obtained:
# [1] = system: mononuclear cell fraction of blood from healthy donors immunised with tetanus toxoid; assay type: cell-based, human (healthy donors)
# [2] = system: mouse colon adenocarcinoma 38 (MCA38); assay: Antitumour activity: outgrowth of subcutaneously implanted mouse colon adenocarcinoma 38 (MCA38) in C57BL/6 mice; assay type: in vivo, mouse (C57BL/6); conditions: for Tumour weight on day 24 after tumour implantation (individual mice): intraperitoneally, every alternate day, 9 doses, individual animal values; for Mean % red. (tumour weight) / Median % red. (tumour weight): vs controls (group A); for Mean tumour weight on day 24: controls mean 0.635; for Median tumour weight on day 24: controls median 0.636
# Method: The activity of the tucaresol was evaluated against the outgrowth of subcutaneously implanted mouse colon adenocarcinoma 38 (MCA38) in female C57BL/6 mice, using the following protocol:
# Day 0 Fifteen, female and 16 male C57BL/6 mice each im-
# planted subcutaneously with one 2 mm cube of tumour.
# Mice randomized and divided into three groups -
# Group A, 5 females and 5 males, Group B, 5 females
# and 5 males, Group C, 5 females and 6 males.
# Day 5 Test groups B and C each dosed with 589C80 (1 mg or
# to 0.2 mg per mouse dissolved in 0.2 ml PBS,
# intraperitoneally) once every alternate day (total of 9
# doses). Control mice (group A) given PBS alone.
# All mice killed, tumours excised and weighed. Mean and
# median tumour weight in test group compared with
# Tucaresol was dissolved in PBS by dropwise addition of 1M KOH to pH 10.0 followed by dropwise addition of conc. HCL to return pH to neutral.
# Dosing schedule where drug was given on alternate days was chosen in order to extend the dosing period over 14 rather than 7 days. By so doing tumours were exposed to the drug from day 13 right up until […] i.e. 2 days before the experiment was terminated.
# [3] = system: Pneumocystis carinii; conditions: AIDS patients; Wofsy 1986; cited from earlier work
molecule,measurement,setting,value
"O=CCCc1ccccc1 [Compound 5, 3-Phenylproponion-aldhyde]",IC50 Ratio with 4-Hydroxyphenylacetaldehyde,[1],40
O=Cc1c(O)cccc1OCc1ccc(C(=O)O)cc1 [Tucaresol],Tumour weight on day 24 after tumour implantation (individual mice),"[2]; Group B, 1.0 mg/mouse",0.740 grammes and 0.695 grammes and 0.358 grammes and 0.303 grammes and 0.298 grammes and 0.090 grammes and 0.079 grammes and 0.038 grammes and 0.022 grammes
same,Mean % red. (tumour weight),"[2]; Group B, 1.0 mg/mouse",54.2%
same,Median % red. (tumour weight),"[2]; Group B, 1.0 mg/mouse",53.15%
same,Mean tumour weight on day 24,"[2]; Group B, 1.0 mg/mouse, S.D. 0.272",0.291 grammes
same,Median tumour weight on day 24,"[2]; Group B, 1.0 mg/mouse",0.298 grammes
same,Tumour weight on day 24 after tumour implantation (individual mice),"[2]; Group C, 0.2 mg/mouse",0.802 grammes and 0.272 grammes and 0.230 grammes and 0.197 grammes and 0.181 grammes and 0.126 grammes and 0.085 grammes and 0.029 grammes and 0.019 grammes and 0.006 grammes
same,Mean % red. (tumour weight),"[2]; Group C, 0.2 mg/mouse",70.4%
same,Median % red. (tumour weight),"[2]; Group C, 0.2 mg/mouse",80.19%
same,Mean tumour weight on day 24,"[2]; Group C, 0.2 mg/mouse, S.D. 0.222",0.188 grammes
same,Median tumour weight on day 24,"[2]; Group C, 0.2 mg/mouse",0.126 grammes
same,Inhibition of outgrowth of subcutaneously implanted MCA38,"[2]; syngeneic C57BL/6 mice, result in words",inhibited the outgrowth
N=C(N)c1ccc(OCCCCCOc2ccc(C(=N)N)cc2)cc1 [pentamidine],Effectiveness in Pneumocystis carinii pneumonia,[3],50-70%
same,Incidence of adverse reactions,[3],around 50%
trimethoprim-sulphamethoxazole,Effectiveness in Pneumocystis carinii pneumonia,[3],50-70%
